Measured values taken from ChEMBL document CHEMBL1149826, “Chemical constituents and diversity of Ligularia lankongensis in Yunnan Province of China” (2008).
The source made the active and inactive calls. The calls are words filed in the database; no cut-off is given here.

System: Bacillus subtilis
Experiment: Antibacterial activity against Bacillus subtilis PCI219 assessed as inhibition zone diameter at […] after 24 hrs by paper disk diffusion assay
Assay type: functional

Compound	Activity	zone of inhibition at 10 mg/kg (PCI219, 24 h, read-out: IZ) [mm]
C=C(C(CC1OC1(C)C)OC(=O)/C(C)=C\C)[C@H]1[C@H](OC(=O)/C(C)=C\C)[C@H]2O[C@@]2(C)[C@@H](O)[C@H]1OC(=O)/C(C)=C\C (some centres not stated)	Active	–
CC[C@H]1OC(=O)[C@H](C)[C@@H](O[C@H]2C[C@@](C)(OC)[C@@H](O)[C@H](C)O2)[C@H](C)[C@@H](O[C@@H]2O[C@H](C)C[C@H](N(C)C)[C@H]2O)[C@](C)(O)C[C@@H](C)C(=O)[C@H](C)[C@@H](O)[C@]1(C)O [ERYTHROMYCIN]	–	31
